This is an account of results in publication PMC6576746, “Rational discovery of dual-indication multi-target PDE/Kinase inhibitor for precision anti-cancer therapy using structural systems pharmacology” (PLoS Computational Biology, 2019).

Common to all, as to assay: biochemical
Design in all cases: DiscoverX KinomeScan competition binding assay across human kinases; per cent of control at 10 and 100 uM

In one assay the target is ACVR1B (Homo sapiens, UniProt P36896). As to conditions: competition binding, % of control; read-out: Percent Control (100 uM Levosimendan). The gist of the method:
(§1)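 Binding is expressed as %control, normalised between positive and negative control signals. The compound (levosimendan) was tested at 10 μM and 100 μM in the DiscoverX KinomeScan competition binding format against human kinases.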

A further assay has as its target AKT2 (Homo sapiens, UniProt P31751). Conditions: competition binding, % of control; read-out: Percent Control (100 uM Levosimendan). The procedure, abridged:
as §1

The target in the next assay is CAMK1 (Homo sapiens, UniProt Q14012). As to conditions: competition binding, % of control; read-out: Percent Control (100 uM Levosimendan). The procedure, abridged: as §1
The target of a further assay is CAMK2G (Homo sapiens, UniProt Q13555). Conditions: competition binding, % of control; read-out: Percent Control (100 uM Levosimendan). The gist of the method:
as §1

Another assay addresses CDK2 (Homo sapiens, UniProt P24941). As to conditions: competition binding, % of control; read-out: Percent Control (100 uM Levosimendan). The gist of the method: as §1
A further assay deals with CDKL1 (Homo sapiens, UniProt Q00532). As to conditions: competition binding, % of control. The gist of the method: as §1
A further assay deals with CIT (Homo sapiens, UniProt O14578). As to conditions: competition binding, % of control; read-out: Percent Control (100 uM Levosimendan). The procedure, abridged: as §1
A further assay addresses CSNK1G1 (Homo sapiens, UniProt Q9HCP0). Conditions: competition binding, % of control; read-out: Percent Control (100 uM Levosimendan). The procedure, abridged:
as §1

The next assay addresses HIPK4 (Homo sapiens, UniProt Q8NE63). As to conditions: competition binding, % of control; read-out: Percent Control (100 uM Levosimendan). The procedure, abridged:
as §1

The next assay addresses KIT (Homo sapiens, UniProt P10721). As to conditions: competition binding, % of control. The procedure, abridged: as §1
In a further assay the target is LRRK2 (Homo sapiens, UniProt Q5S007). Conditions: competition binding, % of control; read-out: Percent Control (100 uM Levosimendan). The gist of the method: as §1
Another assay concerns the target T1, NDR1 (Homo sapiens, UniProt Q15208).
T1 construct: gene STK38
As to conditions: competition binding, % of control; read-out: Percent Control (100 uM Levosimendan). The gist of the method:
as §1

The target of another assay is PIK3C2G (Homo sapiens, UniProt O75747). As to conditions: competition binding, % of control; read-out: Percent Control (100 uM Levosimendan). The gist of the method: as §1
A further assay deals with PIKFYVE (Homo sapiens, UniProt Q9Y2I7). As to conditions: competition binding, % of control; read-out: Percent Control (100 uM Levosimendan). The procedure, abridged: as §1
The target in another assay is SRPK2 (Homo sapiens, UniProt P78362). As to conditions: competition binding, % of control; read-out: Percent Control (100 uM Levosimendan). The procedure, abridged:
as §1

Another assay deals with STK36 (Homo sapiens, UniProt Q9NRP7). As to conditions: competition binding, % of control. The gist of the method:
as §1

The target of another assay is T2, TRKC (Homo sapiens, UniProt Q16288).
T2 construct: gene NTRK3
As to conditions: competition binding, % of control; read-out: Percent Control (100 uM Levosimendan). The gist of the method:
as §1

The target of a further assay is WNK1 (Homo sapiens, UniProt Q9H4A3). As to conditions: competition binding, % of control; read-out: Percent Control (100 uM Levosimendan). The procedure, abridged:
as §1

The target of a further assay is ZAP70 (Homo sapiens, UniProt P43403). As to conditions: competition binding, % of control; read-out: Percent Control (100 uM Levosimendan). The procedure, abridged: as §1
[1] abbreviates: read-out: Percent Control (10 uM Levosimendan).
Where [2] appears, read: read-out: Percent Control (100 uM Levosimendan).

KIT, sequence (P10721 whole entry): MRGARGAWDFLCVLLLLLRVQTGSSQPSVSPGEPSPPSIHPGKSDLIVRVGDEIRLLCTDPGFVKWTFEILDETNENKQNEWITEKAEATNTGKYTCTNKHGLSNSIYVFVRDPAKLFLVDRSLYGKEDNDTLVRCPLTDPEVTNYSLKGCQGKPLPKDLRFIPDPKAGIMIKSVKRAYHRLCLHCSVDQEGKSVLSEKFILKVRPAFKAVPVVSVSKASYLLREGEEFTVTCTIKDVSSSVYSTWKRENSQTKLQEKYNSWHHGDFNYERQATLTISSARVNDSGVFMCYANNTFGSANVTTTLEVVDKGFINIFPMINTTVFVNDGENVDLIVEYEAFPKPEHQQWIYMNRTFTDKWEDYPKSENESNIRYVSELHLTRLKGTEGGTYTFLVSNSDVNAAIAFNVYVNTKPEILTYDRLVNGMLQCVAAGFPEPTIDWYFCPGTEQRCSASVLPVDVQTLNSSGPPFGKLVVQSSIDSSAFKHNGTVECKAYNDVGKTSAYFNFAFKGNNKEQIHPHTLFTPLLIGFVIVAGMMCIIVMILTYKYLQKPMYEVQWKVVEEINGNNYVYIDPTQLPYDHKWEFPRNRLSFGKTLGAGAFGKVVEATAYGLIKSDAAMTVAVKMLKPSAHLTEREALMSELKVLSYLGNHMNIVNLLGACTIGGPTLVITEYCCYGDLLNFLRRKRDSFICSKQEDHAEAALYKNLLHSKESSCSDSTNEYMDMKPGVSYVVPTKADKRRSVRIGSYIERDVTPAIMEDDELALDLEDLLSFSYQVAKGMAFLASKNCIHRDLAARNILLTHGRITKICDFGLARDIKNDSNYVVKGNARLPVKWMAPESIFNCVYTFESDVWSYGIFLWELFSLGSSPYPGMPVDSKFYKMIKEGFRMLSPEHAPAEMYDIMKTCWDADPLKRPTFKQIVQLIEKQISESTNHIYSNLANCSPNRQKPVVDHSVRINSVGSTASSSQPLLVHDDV
STK36, sequence (Q9NRP7 whole entry): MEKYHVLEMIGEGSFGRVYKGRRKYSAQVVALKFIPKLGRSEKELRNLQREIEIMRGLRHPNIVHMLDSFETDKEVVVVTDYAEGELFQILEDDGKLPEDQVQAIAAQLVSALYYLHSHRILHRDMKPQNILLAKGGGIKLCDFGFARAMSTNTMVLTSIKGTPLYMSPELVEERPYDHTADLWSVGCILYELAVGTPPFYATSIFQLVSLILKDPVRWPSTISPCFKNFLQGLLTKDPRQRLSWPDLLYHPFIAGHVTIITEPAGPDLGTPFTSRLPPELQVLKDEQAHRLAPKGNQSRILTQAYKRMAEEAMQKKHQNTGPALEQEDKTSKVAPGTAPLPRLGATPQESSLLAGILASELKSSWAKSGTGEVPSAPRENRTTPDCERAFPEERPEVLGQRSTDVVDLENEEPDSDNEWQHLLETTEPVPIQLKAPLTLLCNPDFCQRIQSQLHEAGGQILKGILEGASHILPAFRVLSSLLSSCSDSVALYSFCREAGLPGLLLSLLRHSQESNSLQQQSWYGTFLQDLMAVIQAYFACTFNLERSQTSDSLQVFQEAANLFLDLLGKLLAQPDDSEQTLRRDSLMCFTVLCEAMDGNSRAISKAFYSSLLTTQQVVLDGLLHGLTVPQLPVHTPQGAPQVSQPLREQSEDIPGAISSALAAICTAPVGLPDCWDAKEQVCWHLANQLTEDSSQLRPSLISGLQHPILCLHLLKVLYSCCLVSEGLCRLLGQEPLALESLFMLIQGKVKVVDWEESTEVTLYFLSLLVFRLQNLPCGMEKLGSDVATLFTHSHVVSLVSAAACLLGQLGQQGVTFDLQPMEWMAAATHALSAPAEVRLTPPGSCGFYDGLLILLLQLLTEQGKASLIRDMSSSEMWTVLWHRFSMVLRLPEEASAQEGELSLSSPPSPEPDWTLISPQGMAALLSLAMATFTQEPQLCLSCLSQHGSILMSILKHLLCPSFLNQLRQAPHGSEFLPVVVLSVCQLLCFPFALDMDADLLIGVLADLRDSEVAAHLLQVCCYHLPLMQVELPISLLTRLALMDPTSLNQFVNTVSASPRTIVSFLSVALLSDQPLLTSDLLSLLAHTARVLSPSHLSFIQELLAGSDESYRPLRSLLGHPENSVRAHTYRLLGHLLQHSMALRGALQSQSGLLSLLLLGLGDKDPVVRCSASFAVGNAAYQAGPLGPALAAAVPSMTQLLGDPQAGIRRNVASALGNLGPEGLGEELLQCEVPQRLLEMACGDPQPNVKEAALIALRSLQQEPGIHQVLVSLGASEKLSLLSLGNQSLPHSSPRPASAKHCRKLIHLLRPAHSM
CDKL1, sequence (Q00532 whole entry): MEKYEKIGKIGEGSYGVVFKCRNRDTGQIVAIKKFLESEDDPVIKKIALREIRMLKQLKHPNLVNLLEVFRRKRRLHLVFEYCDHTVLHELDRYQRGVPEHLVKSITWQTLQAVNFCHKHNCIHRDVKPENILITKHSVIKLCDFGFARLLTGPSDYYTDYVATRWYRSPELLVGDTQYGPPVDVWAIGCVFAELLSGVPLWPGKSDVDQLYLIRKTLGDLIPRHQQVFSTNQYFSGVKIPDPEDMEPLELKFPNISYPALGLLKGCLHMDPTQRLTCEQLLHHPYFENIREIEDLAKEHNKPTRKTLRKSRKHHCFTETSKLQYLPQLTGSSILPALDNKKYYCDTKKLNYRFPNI
CAMK2G, sequence (Q13555 whole entry): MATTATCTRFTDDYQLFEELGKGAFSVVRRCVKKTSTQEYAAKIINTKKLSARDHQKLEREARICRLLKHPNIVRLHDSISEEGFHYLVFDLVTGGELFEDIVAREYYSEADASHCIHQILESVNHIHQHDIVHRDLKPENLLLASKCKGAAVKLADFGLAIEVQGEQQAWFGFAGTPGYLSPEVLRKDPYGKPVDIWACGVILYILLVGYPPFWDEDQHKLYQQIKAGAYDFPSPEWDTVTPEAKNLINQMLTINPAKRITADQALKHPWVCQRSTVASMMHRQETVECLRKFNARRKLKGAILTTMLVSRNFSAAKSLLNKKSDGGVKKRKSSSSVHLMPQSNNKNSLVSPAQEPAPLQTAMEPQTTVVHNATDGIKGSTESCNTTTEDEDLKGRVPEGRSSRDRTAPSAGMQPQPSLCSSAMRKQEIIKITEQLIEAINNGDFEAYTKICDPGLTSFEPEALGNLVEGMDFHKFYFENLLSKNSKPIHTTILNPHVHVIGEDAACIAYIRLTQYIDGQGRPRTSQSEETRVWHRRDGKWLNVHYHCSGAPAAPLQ
HIPK4, sequence (Q8NE63 whole entry): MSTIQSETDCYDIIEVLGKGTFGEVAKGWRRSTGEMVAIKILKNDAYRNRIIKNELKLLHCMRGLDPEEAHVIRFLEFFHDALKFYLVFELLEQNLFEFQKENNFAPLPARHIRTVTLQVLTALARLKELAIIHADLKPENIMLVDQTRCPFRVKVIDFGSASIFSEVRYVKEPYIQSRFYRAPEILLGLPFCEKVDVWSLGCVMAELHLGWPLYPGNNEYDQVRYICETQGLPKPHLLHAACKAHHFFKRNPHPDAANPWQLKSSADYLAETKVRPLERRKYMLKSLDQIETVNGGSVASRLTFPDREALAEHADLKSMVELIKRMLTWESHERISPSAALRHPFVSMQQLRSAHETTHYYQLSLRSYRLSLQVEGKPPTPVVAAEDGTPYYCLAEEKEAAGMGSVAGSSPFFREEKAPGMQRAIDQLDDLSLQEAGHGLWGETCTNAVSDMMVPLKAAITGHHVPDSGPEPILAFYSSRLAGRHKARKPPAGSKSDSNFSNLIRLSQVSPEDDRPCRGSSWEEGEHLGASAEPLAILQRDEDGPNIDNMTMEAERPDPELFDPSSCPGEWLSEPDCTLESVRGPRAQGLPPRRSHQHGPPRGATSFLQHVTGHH
T2 sequence (Q16288 whole entry): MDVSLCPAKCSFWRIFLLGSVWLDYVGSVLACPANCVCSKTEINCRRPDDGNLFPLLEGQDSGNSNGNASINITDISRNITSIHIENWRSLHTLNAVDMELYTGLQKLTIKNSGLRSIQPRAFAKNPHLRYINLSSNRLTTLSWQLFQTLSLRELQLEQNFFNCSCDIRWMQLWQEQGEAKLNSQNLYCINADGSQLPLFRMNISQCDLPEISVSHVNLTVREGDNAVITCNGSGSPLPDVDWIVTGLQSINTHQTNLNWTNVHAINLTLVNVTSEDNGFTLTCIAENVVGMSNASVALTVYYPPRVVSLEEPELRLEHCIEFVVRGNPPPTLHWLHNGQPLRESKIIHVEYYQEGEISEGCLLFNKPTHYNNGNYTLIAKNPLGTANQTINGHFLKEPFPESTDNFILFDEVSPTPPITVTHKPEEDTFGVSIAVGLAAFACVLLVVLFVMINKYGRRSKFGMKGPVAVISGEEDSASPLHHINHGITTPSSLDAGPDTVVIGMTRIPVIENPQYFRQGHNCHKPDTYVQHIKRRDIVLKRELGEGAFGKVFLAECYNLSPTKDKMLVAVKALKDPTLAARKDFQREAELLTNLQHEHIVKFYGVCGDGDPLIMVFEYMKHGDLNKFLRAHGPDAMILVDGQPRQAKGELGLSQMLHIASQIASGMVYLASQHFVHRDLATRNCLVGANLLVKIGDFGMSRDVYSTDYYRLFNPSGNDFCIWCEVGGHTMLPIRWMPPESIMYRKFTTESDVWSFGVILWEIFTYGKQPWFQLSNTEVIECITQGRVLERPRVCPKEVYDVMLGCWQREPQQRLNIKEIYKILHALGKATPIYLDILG
CAMK1, sequence (Q14012 whole entry): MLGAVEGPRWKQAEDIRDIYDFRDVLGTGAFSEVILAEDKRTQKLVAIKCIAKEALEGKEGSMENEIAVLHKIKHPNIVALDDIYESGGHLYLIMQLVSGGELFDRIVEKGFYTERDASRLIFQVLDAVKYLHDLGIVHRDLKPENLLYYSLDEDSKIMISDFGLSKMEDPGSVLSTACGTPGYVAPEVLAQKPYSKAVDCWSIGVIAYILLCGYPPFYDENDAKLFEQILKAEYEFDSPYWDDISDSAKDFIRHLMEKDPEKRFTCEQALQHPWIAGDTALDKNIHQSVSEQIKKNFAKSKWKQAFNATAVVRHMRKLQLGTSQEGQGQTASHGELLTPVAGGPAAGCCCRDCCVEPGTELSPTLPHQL

With `C[C@@H]1CC(=O)NN=C1c1ccc(NN=C(C#N)C#N)cc1` [levosimendan], the remaining binding at 100 µM on ACVR1B is 61%; on AKT2, 64%; on CAMK1, 77%; on CAMK2G, 88%; at CDK2 it was 97%; on CDKL1 (setting [2]), 47%. Also, the remaining binding at 100 µM at CIT amounted to 59%; at CSNK1G1, 78%; at HIPK4, 84%; at KIT (setting [2]) it was 3.5%; on LRRK2, 77%; on NDR1 it was 62%. Moreover, the remaining binding at 100 µM at PIK3C2G amounted to 100%; at PIKFYVE, 57%; at SRPK2 it was 100%; at STK36 (setting [2]) it was 50%; at TRKC it was 65%; on WNK1, 100%. Also, the remaining binding at 100 µM at ZAP70 stood at 74%. The figures for the remaining binding at 10 µM at CDKL1 (setting [1]), on KIT (setting [1]) and on STK36 (setting [1]) were 88%, 26% and 98%, respectively.
